Experimental data reported in PMC11210663 (Emerging Infectious Diseases, 2024).
“Also recorded” adds a separate entry of the source.

Experiments:
[1] = tested on: influenza A(H1N1)pdm09 virus isolates with NA-I223V + S247N; assay type: biochemical
[2] = tested on: influenza A(H1N1)pdm09 virus isolates with NA-I223V; assay type: biochemical
[3] = tested on: influenza A(H1N1)pdm09 virus isolates with NA-S247N; assay type: biochemical
[4] = tested on: influenza A(H1N1)pdm09 virus isolates with NA-S247N; assay type: cell-based
[5] = tested on: influenza A(H1N1)pdm09 virus isolates with NA-I223V + S247N; assay type: cell-based
[6] = tested on: influenza A(H1N1)pdm09 virus isolates with NA-I223V; assay type: cell-based
[7] = read-out: NA inhibitors IC50, average ± SD

CCOC(=O)C1=C[C@@H](OC(CC)CC)[C@H](NC(C)=O)[C@@H](N)C1 [Oseltamivir, oseltamivir]
susceptibility to antiviral drugs [1]: reduced susceptibility

CCC(CC)[C@H](NC(C)=O)[C@@H]1[C@H](O)[C@@H](C(=O)O)C[C@H]1N=C(N)N [Peramivir, peramivir]
NA inhibitors IC50 fold change [1]: 0.29 ± 0.01 (4) fold | IC50 [1, 7]: 0.29 nM | NA inhibitors IC50 fold change [2]: 0.08 ± 0.01 (1) fold | IC50 [2, 7]: 0.08 nM | NA inhibitors IC50 fold change [3]: 0.19 ± 0.01 (3) fold | IC50 [3, 7]: 0.19 nM

O=C1c2c(O)c(=O)ccn2N([C@@H]2c3ccccc3SCc3c2ccc(F)c3F)[C@@H]2COCCN12 [baloxavir]
susceptibility to baloxavir [4]: susceptible | susceptibility to baloxavir [5]: retained susceptibility; also recorded: susceptible | susceptibility to baloxavir [6]: susceptible
